The values that follow come from patent US20140163012A1, “PYRIDO-/AZEPINO-BENZOFURAN AND PYRIDO-/AZEPINO-BENZOTHIOPHENE MCH-1 ANTAGONISTS, METHODS OF MAKING, AND USE THEREOF” (Albany Molecular Research, Inc., priority 2012, published 2014).

Counter-ions that a name gives are not always drawn.

For one experiment, the target named is human MCH-1 receptor (Homo sapiens, UniProt Q99705). As to the kind of experiment: Binding assay for human melanin-concentrating hormone (MCH-1) receptor, radioligand displacement on CHO-K1 cell membranes.
Sequence of human MCH-1 receptor (Q99705 whole entry): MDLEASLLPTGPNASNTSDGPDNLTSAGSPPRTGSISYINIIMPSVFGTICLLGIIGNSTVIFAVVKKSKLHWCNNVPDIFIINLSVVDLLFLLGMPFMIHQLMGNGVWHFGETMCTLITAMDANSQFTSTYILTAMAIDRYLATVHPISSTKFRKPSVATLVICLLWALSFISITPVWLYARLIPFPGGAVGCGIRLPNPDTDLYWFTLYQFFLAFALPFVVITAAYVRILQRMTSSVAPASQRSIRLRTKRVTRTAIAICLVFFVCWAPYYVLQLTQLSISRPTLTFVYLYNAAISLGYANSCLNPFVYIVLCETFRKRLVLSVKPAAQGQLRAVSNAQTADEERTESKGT
Conditions: not given
Turning to `CC(C)N1CCc2c(sc3cc(-n4ccc(OCc5ccc(F)cn5)cc4=O)ccc23)C1` [Example 57, 4-((5-Fluoropyridin-2-yl)methoxy)-1-(2-isopropyl-1,2,3,4-tetrahydrobenzothieno[2,3-c]pyridin-7-yl)pyridin-2(1H)-one hydrochloride], the inhibitory constant (Ki) came to 0.011 µM.

`O=c1cc(OCc2ccccc2)ccn1-c1ccc2c3c(oc2c1)CNCC3` [Example 2, 4-(Benzyloxy)-1-(1,2,3,4-tetrahydrobenzofuro[2,3-c]pyridin-7-yl)pyridin-2(1H)-one hydrochloride] showed a Ki of 0.023 µM.

Take `CC(C)N1CCCc2oc3cc(N4CCN(CCc5ccc(Cl)cc5)CC4=O)ccc3c2C1` [Example 96, 4-(4-Chlorophenethyl)-1-(2-isopropyl-2,3,4,5-tetrahydro-1H-benzofuro[3,2-c]azepin-8-yl)piperazin-2-one hydrochloride]: the Ki came out at 0.15 µM.

`CCN1CCc2oc3cc(-n4ccc(OCc5ccccc5)cc4=O)ccc3c2C1` [Example 26, 4-(Benzyloxy)-1-(2-ethyl-1,2,3,4-tetrahydrobenzofuro[3,2-c]pyridin-7-yl)pyridin-2(1H)-one] returned a Ki of 0.0049 µM.

Take `O=c1cc(CCc2ccc(F)cn2)ccn1-c1ccc2c3c(sc2c1)CNCC3` [Example 126, 4-((5-Fluoropyridin-2-yl)ethyl)-1-(1,2,3,4-tetrahydrobenzothieno[2,3-c]pyridin-7-yl)pyridin-2(1H)-one hydrochloride]: the Ki came out at 0.02 µM.

The molecule `O=c1cc(OCc2ccc(F)cn2)ccn1-c1ccc2c3c(oc2c1)CCN(CCF)C3` [Example 72, 1-(2-(2-Fluoroethyl)-1,2,3,4-tetrahydrobenzofuro[3,2-c]pyridin-7-yl)-4-((5-fluoropyridin-2-yl)methoxy)pyridin-2(1H)-one hydrochloride] yielded a Ki of 0.029 µM.

Turning to `O=C1CN(CCc2ccc(Cl)cc2)CCN1c1ccc2c3c(oc2c1)CCNC3` [Example 87, 4-(4-Chlorophenethyl)-1-(1,2,3,4-tetrahydrobenzofuro[3,2-c]pyridin-7-yl)piperazin-2-one hydrochloride], the affinity corresponds to a Ki of 0.058 µM.

In turn, `O=c1cc(CCc2ccccc2)ccn1-c1ccc2c3c(sc2c1)CNCC3` [Example 127, 4-Phenethyl-1-(1,2,3,4-tetrahydrobenzothieno[2,3-c]pyridin-7-yl)pyridin-2(1H)-one hydrochloride] showed a Ki of 0.0062 µM.

Molecule `CC(=O)N1CCc2c(sc3cc(-n4ccc(OCc5ccc(F)cn5)cc4=O)ccc23)C1` [Example 53, 1-(2-Acetyl-1,2,3,4-tetrahydrobenzothieno[2,3-c]pyridin-7-yl)-4-((5-fluoropyridin-2-yl)methoxy)pyridin-2(1H)-one] yielded an inhibition constant Ki of 0.039 µM.

Molecule `O=c1cc(-c2ccc(C(F)(F)F)nc2)ccn1-c1ccc2c3c(oc2c1)CNCC3` [Example 4, 1′-(1,2,3,4-Tetrahydrobenzofuro[2,3-c]pyridin-7-yl)-6-(trifluoromethyl)-[3,4′-bipyridin]-2′(1′H)-one hydrochloride] had a Ki of 1.31 µM.

Take `C[C@H]1Cc2oc3cc(-n4ccc(OCc5ccccc5)cc4=O)ccc3c2CN1` [Example 32, (S)-4-(Benzyloxy)-1-(3-methyl-1,2,3,4-tetrahydrobenzofuro[3,2-c]pyridin-7-yl)pyridin-2(1H)-one hydrochloride]: the affinity, expressed as Ki, was 0.0074 µM.

Take `CN1CCCc2oc3cc(N4CCN(CCc5ccc(Cl)cc5)CC4=O)ccc3c2C1` [Example 93, 4-(4-Chlorophenethyl)-1-(2-methyl-2,3,4,5-tetrahydro-1H-benzofuro[3,2-c]azepin-8-yl)piperazin-2-one hydrochloride]: the inhibition constant (Ki) amounted to 0.069 µM.

On to `O=c1cc(CCc2ccc(Cl)cn2)ccn1-c1ccc2c3c(oc2c1)CCCNC3` [Example 107, 4-(2-(5-Chloropyridin-2-yl)ethyl)-1-(2,3,4,5-tetrahydro-1H-benzofuro[3,2-c]azepin-8-yl)pyridin-2(1H)-one hydrochloride], for which the inhibition constant (Ki) was determined as 0.0042 µM.

Regarding `O=c1cc(OCc2ccccc2)ccn1-c1ccc2c3c(sc2c1)CCNCC3` [Example 22, 4-(Benzyloxy)-1-(2,3,4,5-tetrahydro-1H-benzothieno[2,3-d]azepin-8-yl)pyridin-2(1H)-one], the inhibition constant (Ki) turned out to be 0.0044 µM.

As to `CN1CCc2oc3cc(-n4ccc(OCc5ccc(C(F)(F)F)nc5)cc4=O)ccc3c2CC1` [Example 84, 1-(3-Methyl-2,3,4,5-tetrahydro-1H-benzofuro[2,3-d]azepin-8-yl)-4-((6-(trifluoromethyl)pyridin-3-yl)methoxy)pyridin-2(1H)-one hydrochloride], the inhibitory constant (Ki) worked out at 0.029 µM.

`O=C1CN(CCc2ccc(Cl)cc2)CCN1c1ccc2c3c(sc2c1)CNCC3` [Example 63, 4-(4-Chlorophenethyl)-1-(1,2,3,4-tetrahydrobenzothieno[2,3-c]pyridin-7-yl)piperazin-2-one hydrochloride] came in with an inhibition constant (Ki) of 0.033 µM.

Take `O=c1cc(OCc2ccccc2)ccn1-c1ccc2sc3c(c2c1)CCNCC3` [Example 117, 4-(Benzyloxy)-1-(2,3,4,5-tetrahydro-1H-benzo[4,5]thieno[2,3-d]azepin-9-yl)pyridin-2(1H)-one hydrochloride]: affinity was put at a Ki of 0.103 µM.

For `O=c1cc(-c2ccc(C(F)(F)F)cc2)ccn1-c1ccc2c3c(oc2c1)CCCNC3` [Example 48, 1-(2,3,4,5-Tetrahydro-1H-benzofuro[3,2-c]azepin-8-yl)-4-(4-(trifluoromethyl)phenyl)pyridin-2(1H)-one hydrochloride], the Ki stood at 0.0045 µM.

`O=c1cc(-c2ccc(C(F)(F)F)cn2)ccn1-c1ccc2c3c(sc2c1)CNCCC3` [Example 17, 1-(2,3,4,5-Tetrahydro-1H-benzothieno[2,3-c]azepin-8-yl)-4-(5-(trifluoromethyl)pyridin-2-yl)pyridin-2(1H)-one] came in with a Ki of 0.927 µM.

The molecule `C[C@@H]1Cc2oc3cc(-n4ccc(OCc5ccc(F)cn5)cc4=O)ccc3c2CN1` [Example 9, (R)-4-((5-Fluoropyridin-2-yl)methoxy)-1-(3-methyl-1,2,3,4-tetrahydrobenzofuro[3,2-c]pyridin-7-yl)pyridin-2(1H)-one] registered an inhibition constant (Ki) of 0.01 µM.

Take `O=c1cc(-c2ccc(C(F)(F)F)nc2)ccn1-c1ccc2c3c(oc2c1)CCNC3` [Example 5, 1′-(1,2,3,4-Tetrahydrobenzofuro[3,2-c]pyridin-7-yl)-6-(trifluoromethyl)-[3,4′-bipyridin]-2′(1′H)-one hydrochloride]: the Ki stood at 0.056 µM.

`O=c1cc(OCc2ccccc2)ccn1-c1ccc2c3c(oc2c1)CCN1CCCC31` (stereo not drawn) [Example 73, 4-(Benzyloxy)-1-(1,2,3,5,6,11c-hexahydrobenzofuro[2,3-g]indolizin-9-yl)pyridin-2(1H)-one hydrochloride]: affinity was put at a Ki of 0.0055 µM.

In the case of `CN1CCc2oc3cc(-n4ccc(OCc5ccc(F)cn5)cc4=O)ccc3c2C1` [Example 23, 4-((5-Fluoropyridin-2-yl)methoxy)-1-(2-methyl-1,2,3,4-tetrahydrobenzofuro[3,2-c]pyridin-7-yl)pyridin-2(1H)-one hydrochloride], the Ki was 0.011 µM.

With `O=c1cc(OCc2ccc(Cl)cn2)ccn1-c1ccc2c3c(oc2c1)CCNC3` [Example 10, 4-((5-Chloropyridin-2-yl)methoxy)-1-(1,2,3,4-tetrahydrobenzofuro[3,2-c]pyridin-7-yl)pyridin-2(1H)-one hydrochloride], the inhibition constant (Ki) is 0.0033 µM.

On to `CN1CCCc2oc3cc(-n4ccc(OCc5cccc(C(F)(F)F)n5)cc4=O)ccc3c2C1` [Example 49, 1-(2-Methyl-2,3,4,5-tetrahydro-1H-benzofuro[3,2-c]azepin-8-yl)-4-((6-(trifluoromethyl)pyridin-2-yl)methoxy)pyridin-2(1H)-one hydrochloride], for which the inhibition constant Ki came out at 0.022 µM.

Molecule `O=c1cc(OCc2ccccc2)ccn1-c1ccc2c3c(oc2c1)CCCNC3` [Example 40, 4-(Benzyloxy)-1-(2,3,4,5-tetrahydro-1H-benzofuro[3,2-c]azepin-8-yl)pyridin-2(1H)-one hydrochloride] displayed an inhibitory constant (Ki) of 0.0034 µM.

In the case of `O=c1cc(-c2ccc(C(F)(F)F)cn2)ccn1-c1ccc2c3c(oc2c1)CCNC3` [Example 11, 1′-(1,2,3,4-Tetrahydrobenzofuro[3,2-c]pyridin-7-yl)-5-(trifluoromethyl)-[2,4′-bipyridin]-2′(1′H)-one hydrochloride], the inhibition constant (Ki) was determined as 0.166 µM.

In turn, `O=c1cc(OCc2ccc(Cl)cn2)ccn1-c1ccc2c3c(sc2c1)CNCC3` [Example 13, 4-((5-Chloropyridin-2-yl)methoxy)-1-(1,2,3,4-tetrahydrobenzothieno[2,3-c]pyridin-7-yl)pyridin-2(1H)-one hydrochloride] came in with an inhibition constant (Ki) of 0.0031 µM.

Molecule `O=c1cc(OCc2ccc(Cl)cn2)ccn1-c1ccc2c3c(sc2c1)CCCNC3` [Example 123, 4-((5-Chloropyridin-2-yl)methoxy)-1-(2,3,4,5-tetrahydro-1H-benzothieno[3,2-c]azepin-8-yl)pyridin-2(1H)-one hydrochloride] had an inhibition constant Ki of 0.0029 µM.

`CC(C)N1CCCc2oc3cc(-n4ccc(OCc5cccc(C(F)(F)F)n5)cc4=O)ccc3c2C1` [Example 81, 1-(2-Isopropyl-2,3,4,5-tetrahydro-1H-benzofuro[3,2-c]azepin-8-yl)-4-((6-(trifluoromethyl)pyridin-2-yl)methoxy)pyridin-2(1H)-one hydrochloride] yielded an inhibitory constant (Ki) of 0.062 µM.

Staying with this experiment, now noted: read-out: MCH1 % inhibition @ 1 uM.
In the case of `O=c1cc(OCc2ccccc2)ccn1-c1ccc2sc3c(c2c1)CCCNC3` [Example 116, 4-(Benzyloxy)-1-(2,3,4,5-tetrahydro-1H-benzo[4,5]thieno[2,3-c]azepin-7-yl)pyridin-2(1H)-one hydrochloride], the inhibition at 1 µM was 37%.

For the molecule `CN1CCCc2oc3cc(N4CCN(CCc5ccc(F)cn5)CC4=O)ccc3c2C1` [Example 95, 4-(2-(5-Fluoropyridin-2-yl)ethyl)-1-(2-methyl-2,3,4,5-tetrahydro-1H-benzofuro[3,2-c]azepin-8-yl)piperazin-2-one hydrochloride], the inhibition at 1 µM was 62%.

For `O=C1NCCc2c1sc1cc(-n3ccc(OCc4ccc(F)cn4)cc3=O)ccc21` [Example 54, 7-(4-((5-Fluoropyridin-2-yl)methoxy)-2-oxopyridin-1(2H)-yl)-3,4-dihydrobenzothieno[2,3-c]pyridin-1(2H)-one], the inhibition at 1 µM amounted to 60%.
